Data set [1] relates to human circulating tumor cells. Kind of data set: drug sensitivity testing (CTC assay) on circulating tumor cells cultivated from patient blood. The class given is cell-based. From the text:
Determination of the effect of a pharmaceutical composition according to the present invention, on human circulating tumor cells in blood of nine patients suffering from different types of carcinoma as given in the following Table IV. The composition of the pharmaceutical composition is the same as used in Example 4.
The cells from the collected blood were cultivated in a usual manner with an agent. The agent was either the pharmaceutical composition according to the present invention, or Resveratrol-ACTIF®, which is a combination preparation comprising resveratrol and at least one gingerol, that were added to the cell culture in a concentration of either 50% 100% and 200%.
The same EDTA blood sample used for the verification of the CTC burden was used for drug sensitivity testing.
After enrichment of mononuclear cells by density gradient centrifugation, CD45 depletion and erythrolysis the remaining cells were suspended in cell culture medium and incubated for 4 days with and without the tested compounds. Compounds were tested at three tissue culture doses (TCD), namely 50%, 100% and 200%.. […]
The same experiment was performed with human circulating tumor cells, prepared from a tumor patient by using Resveratrol-ACTIF® and the pharmaceutical composition according to the present invention. […] The results vary from patient to patient and therefore have to be determined individually. […]

The conditions of data set [2]: in buffer at pH 7; cited from earlier work.
The conditions of data set [3]: several animal studies; cited from earlier work.

These results are taken from EP4588470A1, “PHARMACEUTICAL COMPOSITION COMPRISING CURCUMIN AND THE PREPARATION THEREOF” (priority 2024, dated 2025).

Molecules are shown by their SMILES.

With `N.N.O=C([O-])C1(C(=O)[O-])CCC1.[Pt+2]` [Carboplatin], the “response of tumor cell-inhibition” value in data set [1] (patient 7, Figure 8, already with the 50% TCD (7,9 µg/ml)) is “maximal response has been reached”. Regarding `CCC(=O)C(CC(C)N(C)C)(c1ccccc1)c1ccccc1` (stereo not shown) [Methadon], the “antitumoral capacity among the tested chemotherapeutics” value in data set [1] is “highest antitumoral capacity”. For `COc1cc(C=CC(=O)CC(=O)C=Cc2ccc(O)c(OC)c2)ccc1O` [curcumin, 1,7-bis(4-hydroxy-3-methoxyphenyl)-1,6-heptadiene-3,5-dione], the “solubility in aqueous solution” value in data set [2] was “less than 0.03 M”. In addition, the “oral curcumin excreted in the faeces” value in data set [3] was 90%.
